Results taken from ChEMBL document CHEMBL1201862, “PubChem BioAssay data set” (2004).
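Following 48 hours of exposure in 96-well plates, responses at five concentrations were used to interpolate endpoints linearly. The concentration for 50% growth inhibition is given as GI50.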 Activity calls are given as the source filed them. Rule as the data show it: active = GI50 up to about 1.1 µM and inactive = higher. Where a SMILES comes first, the peptide text is derived from it. [ ]: non-standard residue; d: D form. The star is where a group is joined. Phe(4-NO2) = N[CH](Cc1ccc([N+](=O)[O-])cc1)C(=O)O; Boc = CC(C)(C)OC(=O)*; OtBu = CC(C)(C)O*

What was measured:
Assay in all cases: growth of human tumour cells (NCI), 48 h
[1] = system: SNB-75
[2] = system: TK-10
[3] = system: IGROV-1
[4] = system: MDA-N
[5] = system: UACC-62
[6] = system: SF-539
[7] = system: A498
[8] = system: SK-MEL-5
[9] = system: OVCAR-5
[10] = system: OVCAR-3
[11] = system: K562
[12] = system: MCF7
[13] = system: SK-OV-3
[14] = system: SF-295
[15] = system: CAKI-1
[16] = system: ACHN
[17] = system: SW-620
[18] = system: HOP-92
[19] = system: NCI-H460
[20] = system: SK-MEL-28

| SMILES | GI50 [1] | GI50 [2] | GI50 [3] | GI50 [4] | GI50 [5] | GI50 [6] | GI50 [7] | GI50 [8] | GI50 [9] | GI50 [10] | GI50 [11] | GI50 [12] | GI50 [13] | GI50 [14] | GI50 [15] | GI50 [16] | GI50 [17] | GI50 [18] | GI50 [19] | GI50 [20] |
| --- | --- | --- | --- | --- | --- | --- | --- | --- | --- | --- | --- | --- | --- | --- | --- | --- | --- | --- | --- | --- |
| C=CC(=O)N1C/C(=C\c2ccccc2)C(=O)/C(=C/c2ccccc2)C1 | 3.24 µM (inactive) | 2.88 µM (inactive) | 1.97 µM (inactive) | 0.318 µM (active) | 1.19 µM (inactive) | 1.58 µM (inactive) | 2 µM (inactive) | 1.61 µM (inactive) | 2.49 µM (inactive) | 1.48 µM (inactive) | 0.265 µM (active) | 0.5 µM (active) | 2.58 µM (inactive) | 2.1 µM (inactive) | 2.83 µM (inactive) | 1.83 µM (inactive) | 0.259 µM (active) | 3.62 µM (inactive) | 1.89 µM (inactive) | 1.82 µM (inactive) |
| C=CO/N=[N+](\[O-])N(CC)CC | > 100 µM (inactive) | > 100 µM (inactive) | > 100 µM (inactive) | > 100 µM (inactive) | > 100 µM (inactive) | > 100 µM (inactive) | > 100 µM (inactive) | > 100 µM (inactive) | > 100 µM (inactive) | > 100 µM (inactive) | > 100 µM (inactive) | > 100 µM (inactive) | > 100 µM (inactive) | > 100 µM (inactive) | > 100 µM (inactive) | > 100 µM (inactive) | > 100 µM (inactive) | > 100 µM (inactive) | > 100 µM (inactive) | > 100 µM (inactive) |
| CC[C@@H]1C[C@@H](O)[C@@H]2[C@H](O)[C@H](O)CN2C1 | 22.3 µM (inactive) | > 100 µM (inactive) | > 100 µM (inactive) | > 100 µM (inactive) | > 100 µM (inactive) | > 100 µM (inactive) | > 100 µM (inactive) | > 100 µM (inactive) | > 100 µM (inactive) | > 100 µM (inactive) | > 100 µM (inactive) | > 100 µM (inactive) | > 100 µM (inactive) | > 100 µM (inactive) | > 100 µM (inactive) | > 100 µM (inactive) | > 100 µM (inactive) | > 100 µM (inactive) | > 100 µM (inactive) | > 100 µM (inactive) |
| COC(=O)C(Cc1ccc([N+](=O)[O-])cc1)NC(=O)C(CC(=O)OC(C)(C)C)NC(=O)OC(C)(C)C (stereo not given) (Boc-Asp(OtBu)-[Phe(4-NO2)]-OMe; configuration not given here) | 55.5 µM (inactive) | > 100 µM (inactive) | > 100 µM (inactive) | > 100 µM (inactive) | > 100 µM (inactive) | > 100 µM (inactive) | > 100 µM (inactive) | > 100 µM (inactive) | > 100 µM (inactive) | > 100 µM (inactive) | > 100 µM (inactive) | > 100 µM (inactive) | > 100 µM (inactive) | > 100 µM (inactive) | > 100 µM (inactive) | > 100 µM (inactive) | > 100 µM (inactive) | > 100 µM (inactive) | > 100 µM (inactive) | 25.5 µM (inactive) |
| COc1ccc2c(c1)-c1nc(=S)n(CCCN(C)C)c3ccc([N+](=O)[O-])c(c13)N2 | 6.32 µM (inactive) | 2.8 µM (inactive) | 0.345 µM (active) | 0.815 µM (active) | 12.1 µM (inactive) | 0.589 µM (active) | 4.09 µM (inactive) | 1.14 µM (inactive) | 0.611 µM (active) | 1.59 µM (inactive) | 0.454 µM (active) | 0.437 µM (active) | 1.11 µM (active) | 1.81 µM (inactive) | 1.68 µM (inactive) | 0.296 µM (active) | 0.344 µM (active) | 2.15 µM (inactive) | 0.358 µM (active) | 1.13 µM (inactive) |
| COC(=O)C1CCC(=O)N1CN(C(C)=O)c1ccccc1 (stereo not given) | > 100 µM (inactive) | > 100 µM (inactive) | > 100 µM (inactive) | > 100 µM (inactive) | > 100 µM (inactive) | > 100 µM (inactive) | > 100 µM (inactive) | > 100 µM (inactive) | > 100 µM (inactive) | > 100 µM (inactive) | > 100 µM (inactive) | > 100 µM (inactive) | > 100 µM (inactive) | > 100 µM (inactive) | > 100 µM (inactive) | > 100 µM (inactive) | > 100 µM (inactive) | > 100 µM (inactive) | > 100 µM (inactive) | > 100 µM (inactive) |
